Assay results taken from paper PMC5086919, “Antileukemic Scalarane Sesterterpenoids and Meroditerpenoid from Carteriospongia (Phyllospongia) sp., Induce Apoptosis via Dual Inhibitory Effects on Topoisomerase II and Hsp90” (Scientific Reports, 2016).
In brackets after ≈: the same amount, converted by molar mass. Several values for one entry are separate records, joined by “and”; a condition that tells them apart may be missing. Equal values may be shown once.

What was measured:
Molt 4 cells [1] = assay: MMP disruption, JC-1 staining flow cytometry; format: cell-based, human; conditions: 0, 0.0625, 0.125 and 0.25 μg/mL, 24 h
Method: These assays were performed as described previously. […] In brief, the treated cells were labeled with a specific fluorescent dye for 30 min. After labeling, cells were washed with PBS and resuspended in PBS at a concentration of 1 × 10^6 cells/mL before analysis via flow cytometry.

Sup-T1 cells = assay: MTT antiproliferative assay, lymphoma Sup-T1 cells; conditions: Homo sapiens, SUP-T1, 72 h, read-out: IC50, cytotoxicity, Lymphoma Sup-T1
Ca9-22 cells = assay: MTT antiproliferative assay, oral Ca9-22 cells; conditions: Homo sapiens, Ca9-22, 72 h, read-out: IC50, cytotoxicity, Oral Ca9-22
Description: (§2) Several cancer cell lines including leukemia K562, Molt 4, and HL 60 cells, prostate cancer LNCaP cells, colon cancer DLD-1 cells and breast cancer T-47D cells were used to evaluate the antiproliferative activity.
(§3) The cell lines were obtained from the American Type Culture Collection (ATCC, Manassas, VA, USA). […] Dimethyl sulfoxide (DMSO), 3-(4,5-dimethylthiazol-2-yl)-2,5-diphenyl-tetrazolium bromide (MTT) and all other chemicals were purchased from Sigma-Aldrich (St. Louis, MO, USA).

U937 cells = assay: MTT antiproliferative assay, lymphoma U937 cells; conditions: Homo sapiens, U-937, 72 h, read-out: IC50, cytotoxicity, Lymphoma U937
T-47D cells = assay: MTT antiproliferative assay, breast cancer T-47D cells; conditions: Homo sapiens, T47D, 72 h, read-out: IC50, cytotoxicity, Breast T-47D
Description: as §2, §3

[2] = test system: ER stress-related proteins in Molt 4 cells; assay: Western blot of ER stress-related proteins; format: cell-based, human; conditions: 0.0625 μg/mL, time-dependent
Method: (§1) Oxidative stress is manifested by ROS overexpression and cannot be balanced by the available antioxidant machinery. Compound 1 can damage the integrity of mitochondria, which are the major production sites of the superoxide anion, […]. The induction of the intracellular formation of ROS by 1 was determined with a carboxyl derivative of fluorescein, carboxy-H2DCFDA dye using flow cytometric analysis. […] In addition, ROS generation could induce ER stress leading to mitochondria-related apoptosis. To further investigate if ER stress is involved in the apoptotic effect induced by 1, Western blot analysis was used to determine the expression of ER stress-related proteins. […] Furthermore, the effect of 1 on the release of intracellular Ca^2+, was evaluated using fluorescent calcium indicator, Fluo 3. […] The effect of 1 (0.0625 μg/mL) at different time intervals (0, 3, 6 and 9 h) on the level of nuclear DNA integrity was determined. […]
Cell lysates were prepared by treating the cells for 30 min in RIPA lysis buffer, 1% Nonidet P-40, 0.5% sodium deoxycholate, 0.1% sodium dodecyl sulphate (SDS), 1 mM sodium orthovanadate, 100 μg/mL phenylmethylsulfonyl fluoride and 30 μg/mL aprotinin) (all chemicals were from Sigma)[38]. The lysates were centrifuged at 20,000 × g for 30 min, and the protein concentration in the supernatant was determined using a BCA protein assay kit (Pierce). […]

Molt 4 cells [3] = assay: Neutral comet assay for DNA double-strand breaks; format: cell-based, human; conditions: 0.0625 μg/mL; 0, 3, 6 and 9 h; neutral electrophoresis
Method: as §1
The assay was carried out using a CometAssayTM Kit (Trevigen, Gaithersburg, MD, USA) following the manufacturer’s protocol for the neutral Comet assay. […] The fluorescence images were analyzed using the TriTek Comet Image program to circumscribe the “head” and the “tail” regions of each comet and the integrated fluorescence values of each defined area were recorded. The comet length was measured from the trailing edge of the nucleus to the leading edge of the tail. […]

LNCaP cells = assay: MTT antiproliferative assay, prostate cancer LNCaP cells; conditions: Homo sapiens, 72 h, read-out: IC50, cytotoxicity, Prostate LNCaP
Description: as §2, §3

K562 cells = assay: MTT antiproliferative assay, leukemia K562 cells; conditions: Homo sapiens, K562, 72 h, read-out: IC50, cytotoxicity, Leukemia K562
Description: as §2, §3

[4] = test system: all leukemia and one lymphoma cell lines; assay: MTT assay, summary statement for leukemia and lymphoma lines; conditions: read-out: IC50 against all leukemia and one lymphoma cell lines
Description: as §2, §3

[5] = test system: Hsp90 client proteins in Molt 4 cells; assay: Western blot of Hsp90, Hsp70, HSF 1 and Hsp90 client proteins; format: cell-based, human; conditions: 0.0625 μg/mL, different time intervals
Method: It was also reported that the induction of Hsp70 is the biomarker of Hsp90 with N-terminal inhibition. Aiming to understand the relation between Hsp90 function and the expression of Hsp70 and 90 clients, we treated Molt 4 cells with 1 (0.0625 μg/mL) for different time intervals. […] The majority of Hsps accumulate in subcellular localizations that determine whether a cell is going to die or differentiate. Erythroblasts with accumulated nuclear Hsp70 continued their differentiation process during the formation of red blood cells. Furthermore, we identified the localization of Hsp70 in response to 1 treatment using immunofluorescence by confocal microscope.
Cell lysates were prepared by treating the cells for 30 min in RIPA lysis buffer, 1% Nonidet P-40, 0.5% sodium deoxycholate, 0.1% sodium dodecyl sulphate (SDS), 1 mM sodium orthovanadate, 100 μg/mL phenylmethylsulfonyl fluoride and 30 μg/mL aprotinin) (all chemicals were from Sigma)[38]. The lysates were centrifuged at 20,000 × g for 30 min, and the protein concentration in the supernatant was determined using a BCA protein assay kit (Pierce). Equal amounts of proteins were respectively separated by 7.5%, 10% or 12% of SDS-polyacrylamide gel electrophoresis and then were electrotransferred to a PVDF membrane. The membrane was blocked with a solution containing 5% non-fat dry milk TBST buffer (20 mM Tris-HCl, pH 7.4, 150 mM NaCl and 0.1% Tween 20) for 1 h and washed with TBST buffer. The protein expressions were monitored by immunoblotting using specific antibodies. These proteins were detected by an enhanced chemiluminescence kit (Pierce).

SMILES: CC[C@@]1(C)CCC[C@]2(C)[C@H]3C[C@@H](OC(=O)C[C@@H](C)O)[C@]4(C)[C@@H](C=O)C(C(C)=O)=CC[C@H]4[C@]3(C)CC[C@@H]12 (relative stereo) [Compound 1, 12β-(3′β-hydroxybutanoyloxy)-20,24-dimethyl-24-oxo-scalara-16-en-25-al]
- mitochondrial membrane potential (Molt 4 cells [1]): disruption in mitochondrial membrane potential
- IC50 (Sup-T1 cells): 0.13 µg/mL (≈ 0.26 µM)
- IC50 (Ca9-22 cells): 0.1 µg/mL (≈ 0.2 µM)
- IC50 (U937 cells): 0.01 µg/mL (≈ 0.02 µM)
- IC50 (T-47D cells): 2.19 µg/mL (≈ 4.37 µM)
- levels of ER stress-related proteins [2]: promoted the levels of Bip, Chop, Grp 94 as well as the activation and cleavage of ATF 6 but suppressed the levels of PERK and IRE 1
- DNA migration (DSBs), comet assay (Molt 4 cells [3]): increased the degree of DNA migration
- IC50 (LNCaP cells): 13.9 µg/mL (≈ 27.7 µM)
- IC50 (K562 cells): 0.01 µg/mL (≈ 0.02 µM)
- IC50 [4]: 0.01 µg/mL and 2.08 nM
- expression of HSF 1 protein [5]: attenuated
- expression of Hsp70 [5]: increased in a time-dependent manner
- expression of Hsp90 client proteins (p70S6k, NFκB, Raf-1, p-GSK3β, MEK 1, XIAP, MDM 2, Rb2, CDK4, HIF 1, HSF1) [5]: suppression of Hsp90 client proteins was observed
- expression of Hsp90 protein [5]: did not notably attenuate the expression of Hsp90 protein
